In one assay the test system is B16F10 cells. Briefly: Proliferation assay B16F10 (Method 3, crystal violet). The assay is classed as cell-based. To be noted: Mus musculus, B16-F10, 96 h; B16F10, 4 days incubation; read-out: Inhibition of B16F10 cell proliferation IC50. The method, then:
(§1) Cultivated tumour cells (HeLa, human cervical tumour cells, ATCC CCL-2; NCI-H460, human non-small cell lung carcinoma cells, ATCC HTB-177; A2780, human ovarian carcinoma cells, ECACC #93112519; DU 145, hormone-independent human prostate carcinoma cells, ATCC HTB-81; HeLa-MaTu-ADR, multidrug-resistant human cervical carcinoma cells, EPO-GmbH Berlin; Caco-2, human colorectal carcinoma cells, ATCC HTB-37; B16F10, mouse melanoma cells, ATCC CRL-6475) were plated at a density of 5,000 cells/well (DU145, HeLa-MaTu-ADR), 3,000 cells/well (NCI-H460, HeLa), 2,500 cells/well (A2780), 1,500 cells/well (Caco-2), or 1,000 cells/well (B16F10) in a 96-well multititer plate in 200 μL of their respective growth medium supplemented 10% fetal calf serum. After 24 hours, the cells of one plate (zero-point plate) were stained with crystal violet (see below), while the medium of the other plates was replaced by fresh culture medium (200 μl), to which the test substances were added in various concentrations (0 μM, as well as in the range of 0.001-10 μM; the final concentration of the solvent dimethyl sulfoxide was 0.5%). The cells were incubated for 4 days in the presence of test substances. Cell proliferation was determined by staining the cells with crystal violet: the cells were fixed by adding 20 μl/measuring point of an 11% glutaric aldehyde solution for 15 minutes at room temperature. After three washing cycles of the fixed cells with water, the plates were dried at room temperature. The cells were stained by adding 100 μl/measuring point of a 0.1% crystal violet solution (pH 3.0). After three washing cycles of the stained cells with water, the plates were dried at room temperature. The dye was dissolved by adding 100 μl/measuring point of a 10% acetic acid solution. The extinction was determined by photometry at a wavelength of 595 nm. The change of cell number, in percent, was calculated by normalization of the measured values to the extinction values of the zero-point plate (=0%) and the extinction of the untreated (0 μm) cells (=100%). The IC50 values (inhibitory concentration at 50% of maximal effect) were determined by means of a 4 parameter fit.

For the next assay, the system named is HeLa cells. Briefly: Proliferation assay HeLa (Method 3, crystal violet). The format is cell-based. The conditions noted are these: Homo sapiens, 96 h, 4 days incubation, read-out: Inhibition of HeLa cell proliferation IC50. The method, then: as §1
A further assay relates to MOLM-13 cells. The assay is described as follows: Proliferation assay MOLM-13 (Method 3, Cell Titre-Glo). The format is cell-based. To be noted: Homo sapiens; MOLM-13, 72-hour exposure; read-out: Inhibition of MOLM-13 cell proliferation IC50. The method, then: Non-adherent MOLM-13 human acute myeloid leukemia cells (DSMZ ACC 554) were seeded at a density of 5,000 cells/well in a 96-well multititer plate in 100 μL of growth medium supplemented 10% fetal calf serum. After 24 hours, cell viability of one plate (zero-point plate) was determined with the Cell Titre-Glo Luminescent Cell Viability Assay (Promega), while 50 μL of test compound containing medium was added to the wells of the other plates (final concentrations in the range of 0.001-10 μM and DMSO controls; the final concentration of the solvent dimethyl sulfoxide was 0.5%). Cell viability was assessed after 72-hour exposure with the Cell Titre-Glo Luminescent Cell Viability Assay (Promega). IC50 values (inhibitory concentration at 50% of maximal effect) were determined by means of a 4 parameter fit on measurement data which were normalized to vehicle (DMSO) treated cells (=100%) and measurement readings taken immediately before compound exposure (=0%).

The next assay deals with DU145 cells. Briefly: Proliferation assay DU145 (Method 3, crystal violet). The format is cell-based. The conditions noted are these: Homo sapiens, DU-145, 96 h; DU145, 4 days incubation; read-out: Inhibition of DU145 cell proliferation IC50. How it is done: as §1, with “The IC50 values (inhibitory concentration at 50% of maximal effect) were determined by means of a 4 parameter fit.” left out

The target in another assay is T1, CDK2/CycE (Homo sapiens, UniProt P24941).
T1 construct: GST; purchased ProQinase GmbH (Freiburg, Germany); host or cells: insect cells (Sf9)
Briefly: CDK2/CycE kinase assay (Method 2a, TR-FRET). To be noted: 10 μM ATP. The format is biochemical. The text has this:
2a. CDK2/CycE Kinase Assay:
CDK2/CycE-inhibitory activity of compounds of the present invention was quantified employing the CDK2/CycE TR-FRET assay as described in the following paragraphs:
Recombinant fusion proteins of GST and human CDK2 and of GST and human CycE, expressed in insect cells (Sf9) and purified by Glutathion-Sepharose affinity chromatography, were purchased from ProQinase GmbH (Freiburg, Germany). As substrate for the kinase reaction biotinylated peptide biotin-Ttds-YISPLKSPYKISEG (C-terminus in amid form) was used which can be purchased e.g. form the company JERINI Peptide Technologies (Berlin, Germany).
For the assay 50 nl of a 100 fold concentrated solution of the test compound in DMSO was pipetted into a black low volume 384 well microtiter plate (Greiner Bio-One, Frickenhausen, Germany), 2 μl of a solution of CDK2/CycE in aqueous assay buffer [50 mM Tris/HCl pH 8.0, 10 mM MgCl2, 1.0 mM dithiothreitol, 0.1 mM sodium ortho-vanadate, 0.01% (v/v) Nonidet-P40 (Sigma)] were added and the mixture was incubated for 15 min at 22° C. to allow pre-binding of the test compounds to the enzyme before the start of the kinase reaction. Then the kinase reaction was started by the addition of 3 μl of a solution of adenosine-tri-phosphate (ATP, 16.7 μM=> final conc. in the 5 μl assay volume is 10 μM) and substrate (1.25 μM=> final conc. in the 5 μl assay volume is 0.75 μM) in assay buffer and the resulting mixture was incubated for a reaction time of 25 min at 22° C. […]
The resulting mixture was incubated 1 h at 22° C. to allow the formation of complex between the phosphorylated biotinylated peptide and the detection reagents. Subsequently the amount of phosphorylated substrate was evaluated by measurement of the resonance energy transfer from the Euchelate to the streptavidine-XL. Therefore, the fluorescence emissions at 620 nm and 665 nm after excitation at 350 nm was measured in a TR-FRET reader, e.g. a Rubystar (BMG Labtechnologies, Offenburg, Germany) or a Viewlux (Perkin-Elmer). […]
On the technique in general: Time-resolved FRET reads energy transfer from a long-lived donor to a nearby acceptor.

Consider `Cc1cc(CS(C)(=O)=O)cc(Nc2ncc(F)c(-c3ccc(F)c4ccoc34)n2)c1` [Example 4, 5-Fluoro-4-(4-fluoro-1-benzofuran-7-yl)-N-{3-methyl-5-[(methylsulfonyl)methyl]-phenyl}pyrimidin-2-amine], for which the IC50 was 242 nM with B16F10 cells; 100 nM in the assay on HeLa cells; 46 nM in the assay on MOLM-13 cells; 237 nM with DU145 cells; 57 nM against CDK2/CycE.

As to `CS(=O)(=O)Cc1cccc(Nc2ncc(F)c(-c3ccc(F)c4ccoc34)n2)c1` [Example 1, 5-Fluoro-4-(4-fluoro-1-benzofuran-7-yl)-N-{3-[(methylsulfonyl)methyl]-phenyl}pyrimidin-2-amine], the IC50 in the assay with B16F10 cells came to 390 nM; in the assay on HeLa cells, 270 nM; with MOLM-13 cells, 170 nM; with DU145 cells it was 360 nM; against CDK2/CycE, 175 nM.

On to `CCS(=O)(=O)Cc1cccc(Nc2ncc(F)c(-c3ccc(F)c4ccoc34)n2)c1` [Example 2, N-{3-[(Ethylsulfonyl)methyl]phenyl}-5-fluoro-4-(4-fluoro-1-benzofuran-7-yl)pyrimidin-2-amine], for which the results for the IC50 in the assay with B16F10 cells, with HeLa cells and at CDK2/CycE were 100 nM, 335 nM and 112 nM, respectively.

Turning to `CS(=O)(=O)Cc1cc(F)cc(Nc2ncc(F)c(-c3ccc(F)c4ccoc34)n2)c1` [Example 3], the IC50 was 245 nM in the assay with B16F10 cells, 100 nM with HeLa cells and 298 nM in the assay on DU145 cells.

(Values after US9902716B2, “Fluorinated benzofuranyl-pyrimidine derivatives containing a sulfone group” (Bayer Pharma Aktiengesellschaft, priority 2014, dated 2018).)
